Here are results for 10 compounds from PubChem BioAssay (NCI).

Test systems include SK-MEL-28 melanoma; OVCAR-3 ovarian; MDA-MB-231 breast; HT29 colon; SR leukemia; OVCAR-8 ovarian; T-47D breast; NCI-H460 lung; DU-145 prostate.
Experiment in all cases: DTP human tumour cell line panel, 48 h

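Assay format: 96-well plates, 48-hour exposure. GI50 = concentration required for 50% inhibition of growth. TGI denotes the concentration required for complete inhibition of growth.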

As usually defined, the TGI is the concentration at which net growth stops. With `O=C(O)CCNc1ccccc1C(=O)O`, the TGI in the test on SK-MEL-28 melanoma, in the test on OVCAR-3 ovarian, in the test with MDA-MB-231 breast, in the test with HT29 colon, with SR leukemia and in the test with OVCAR-8 ovarian was more than 100 µM throughout. For the same compound, the TGI with T-47D breast, in the test on NCI-H460 lung and in the test on DU-145 prostate was more than 100 µM in each case.
As usually defined, the GI50 is the concentration that inhibits growth by half. For `COc1cc(C(=O)/C=C/c2c(C)n([O-])c3ccc(C)cc3[n+]2=O)cc(OC)c1OC`, the GI50 in the test on SK-MEL-28 melanoma was 2.41 µM; in the test with OVCAR-3 ovarian it was 3.11 µM; in the test with MDA-MB-231 breast, 10.6 µM; with HT29 colon, 4.84 µM; with SR leukemia, 2.15 µM; with OVCAR-8 ovarian it was 3.46 µM. The figures for the GI50 in the test with T-47D breast, in the test on NCI-H460 lung and in the test with DU-145 prostate were 2.23 µM, 14.7 µM and 7.88 µM, respectively. Besides, the concentration for total growth inhibition (TGI) with SK-MEL-28 melanoma was 6.54 µM; in the test on OVCAR-3 ovarian it was 7.1 µM; in the test with MDA-MB-231 breast, more than 100 µM; with HT29 colon, 16.5 µM; with SR leukemia, 7.42 µM; with OVCAR-8 ovarian, more than 56.4 µM. The figures for the TGI in the test with T-47D breast, with NCI-H460 lung and in the test with DU-145 prostate were 5.81 µM, 36.9 µM and 21.1 µM, respectively.
`CN(Cc1cnc2nc(N)nc(N)c2n1)c1ccc(C(=O)NC(CCC(=O)O)C(=O)O)cc1C(F)(F)F` (centres undefined): the TGI is more than 100 µM with SK-MEL-28 melanoma; more than 100 µM with OVCAR-3 ovarian; more than 100 µM in the test with MDA-MB-231 breast; more than 100 µM in the test on HT29 colon; 1.24 µM in the test on SR leukemia; more than 66.7 µM in the test with OVCAR-8 ovarian. Moreover, the TGI in the test with T-47D breast, in the test with NCI-H460 lung and with DU-145 prostate was more than 100 µM throughout.
As to `FC(F)(F)Oc1cccc(-c2cnc3ccc(-c4ccncc4)nn23)c1`, the GI50 with SK-MEL-28 melanoma was 2.53 µM; with OVCAR-3 ovarian, 1.65 µM; in the test on MDA-MB-231 breast, 3.18 µM; in the test with HT29 colon, 1.34 µM; with SR leukemia, 0.744 µM; with OVCAR-8 ovarian, 1.47 µM. In addition, the GI50 in the test on T-47D breast was 0.571 µM; with NCI-H460 lung, 0.996 µM; with DU-145 prostate, 1.6 µM. Further, the TGI was more than 100 µM in the test on SK-MEL-28 melanoma; 7.43 µM in the test with OVCAR-3 ovarian; more than 100 µM in the test on MDA-MB-231 breast; more than 100 µM in the test on HT29 colon; 11.8 µM in the test on SR leukemia; more than 100 µM with OVCAR-8 ovarian. Also, the figures for the TGI in the test with T-47D breast, with NCI-H460 lung and with DU-145 prostate were 4.26 µM, more than 100 µM and more than 100 µM, respectively.
For the compound `Cc1c2cc[n+](C)cc2c(C)c2c1sc1ccccc12`, the TGI in the test with SK-MEL-28 melanoma was 6.15 µM; in the test on OVCAR-3 ovarian, 5.43 µM; in the test with MDA-MB-231 breast, 11.2 µM; in the test on HT29 colon, 25.4 µM; in the test with SR leukemia it was 9.54 µM; with OVCAR-8 ovarian, 4.8 µM. Moreover, the TGI with T-47D breast is 3.67 µM; in the test on NCI-H460 lung it was 6.02 µM; in the test with DU-145 prostate, 5.07 µM.
On to `CCCCON(OC(=O)c1ccccc1)C(=O)c1ccccc1`, for which the GI50 is more than 100 µM in the test on SK-MEL-28 melanoma; more than 100 µM in the test with OVCAR-3 ovarian; more than 100 µM in the test on MDA-MB-231 breast; more than 100 µM in the test on HT29 colon; 30.3 µM with SR leukemia; more than 100 µM in the test with OVCAR-8 ovarian. The GI50 in the test with T-47D breast, in the test with NCI-H460 lung and in the test with DU-145 prostate was more than 100 µM each time. Moreover, the concentration for total growth inhibition (TGI) with SK-MEL-28 melanoma, with OVCAR-3 ovarian, with MDA-MB-231 breast, in the test on HT29 colon, in the test on SR leukemia and in the test with OVCAR-8 ovarian was more than 100 µM throughout. In addition, the TGI with T-47D breast, with NCI-H460 lung and in the test on DU-145 prostate was more than 100 µM in each case.
Take `CC(=O)NCCc1c2c(c3nccc4c3c1Nc1ccccc1-4)OCS2`: the GI50 in the test on SK-MEL-28 melanoma is 3.45 µM; in the test on OVCAR-3 ovarian it was 1.48 µM; with MDA-MB-231 breast it was 0.594 µM; in the test with HT29 colon, 0.968 µM; in the test with SR leukemia it was 0.0354 µM; with OVCAR-8 ovarian, 2.09 µM. The GI50 in the test on T-47D breast was 2.39 µM; in the test with NCI-H460 lung, 0.498 µM; in the test on DU-145 prostate, 1.06 µM. The TGI in the test with SK-MEL-28 melanoma was 15.7 µM; in the test with OVCAR-3 ovarian, 5.67 µM; in the test on MDA-MB-231 breast it was 6.61 µM; in the test on HT29 colon, 4.77 µM; in the test with SR leukemia it was more than 100 µM; in the test with OVCAR-8 ovarian, more than 33.1 µM. Further, the TGI in the test on T-47D breast was determined as 12.8 µM; in the test with NCI-H460 lung, 9.98 µM; with DU-145 prostate it was 2.48 µM.
`COc1ccccc1NC(=O)c1sc2nc3c(cc2c1N)C(=O)CCC3`: the GI50 was 3.46 µM in the test with SK-MEL-28 melanoma; 25.3 µM with OVCAR-3 ovarian; 2.91 µM with MDA-MB-231 breast; more than 100 µM with SR leukemia; 3.97 µM with OVCAR-8 ovarian; more than 100 µM in the test with T-47D breast. Also, the results for the GI50 in the test with NCI-H460 lung and in the test with DU-145 prostate were 3.06 µM and more than 100 µM, respectively. Also, the TGI with SK-MEL-28 melanoma, in the test on OVCAR-3 ovarian, in the test on MDA-MB-231 breast, in the test with SR leukemia, with OVCAR-8 ovarian and with T-47D breast was more than 100 µM throughout. For the same compound, the TGI with NCI-H460 lung and in the test with DU-145 prostate was more than 100 µM in each case.
As to `O=C(O)C/C(=C\c1ccco1)C(=O)O`, the concentration for total growth inhibition (TGI) with SK-MEL-28 melanoma, in the test on OVCAR-3 ovarian, in the test with MDA-MB-231 breast, in the test with HT29 colon, in the test with SR leukemia and with OVCAR-8 ovarian was more than 100 µM throughout. Besides, the concentration for total growth inhibition (TGI) with T-47D breast and in the test with DU-145 prostate was more than 100 µM throughout.
For `F`, the GI50 in the test on OVCAR-3 ovarian was more than 6870 µM; in the test on MDA-MB-231 breast, 2660 µM; in the test with HT29 colon, 2110 µM; in the test with SR leukemia, more than 6870 µM; in the test with OVCAR-8 ovarian, 3250 µM; in the test on T-47D breast, 2100 µM. Also, the GI50 is 5410 µM with NCI-H460 lung and 2800 µM in the test with DU-145 prostate. Moreover, the TGI in the test with OVCAR-3 ovarian is more than 6870 µM; in the test on MDA-MB-231 breast, more than 6870 µM; in the test on HT29 colon, 6180 µM; in the test on SR leukemia, more than 6870 µM; with OVCAR-8 ovarian, more than 6870 µM; in the test on T-47D breast it was 5670 µM. Further, the TGI with NCI-H460 lung and in the test with DU-145 prostate was more than 6870 µM each time.
